# From patent publication US10888569B1, “Methods and compositions for treating cancer” (THE UNIVERSITY OF CHICAGO, priority 2017, dated 2021)
# Legend:
# [1] = system: TNBC cells (BM1, MB436, MB468, BT549); assay type: cell-based, human
# Description: TNBC cell lines stably knocked down with lenti-viral shRNA for BACH1 were constructed and maintained as described previously. Gene expression analysis of cultured cells and isolated tumor tissues used a Reverse transcriptase kit followed by Roche96 cycler for real time mRNA quantification and Lycor imaging for immunoblotting. For in vitro cell viability assay with mitochondrial inhibitors, TNBC cells (2×10^3-5×10^3/well) seeded on 96 well plates overnight with culture media (DMEM with 25 mM Glucose) were treated with inhibitors in fresh culture media (DMEM with 1.25 mM Glucose) for 48 and 72 hours and stained with calcein AM and/or monitored for cellular confluency using an IncuCyte Zoom Live Cell Analysis system. Extracellular flux analyzer was used to assay metabolic phenotypes of BACH1-depleted TNBC cells and TNBC cells that are treated with hemin overnight before assays. For bioinformatics analysis using primary patient data cohort (TCGA), cBioportal and R were used.
# Breast cancer cells (5,000 cells/well) and non-malignant mammary epithelial cells (8,000 cells/well) were plated on 96-well plates to observe growth of cells every 4 hours by phase contrast imaging using an IncuCyte Zoom Live Cell Analysis system (Essen Bioscience). After 24 hours of plating, inhibitors were added and monitored until control cells reached 100% confluent. To determine cell viability, cells were seeded in black walled 96-well plates overnight and treated with inhibitors for 48 hours. Calcein AM (R&D system) in PBS was then added and incubated for 1 hour at 37° C. Fluorescence was determined using a Victor3 plate reader (PerkinElmer) with excitation at 420 nm and emission at 520 nm. The absorbance was used to reflect live cell numbers and was normalized to those in control with vehicles and shown as relative viability (%).
# [2] = biological target: T1, BACH1 (Homo sapiens, UniProt O14867); assay: Immunoblotting of BACH1 in cell lysates after hemin; assay type: cell-based; set-up: Protein blots of BACH1 levels in BM1 and MB436 cells treated with Hemin for 4 or 24 hours; endogenous in cells; host or cells: BM1 (MDA-MB-231 derivative), MDA-MB-436, BT549
# T1 sequence (O14867 1-736): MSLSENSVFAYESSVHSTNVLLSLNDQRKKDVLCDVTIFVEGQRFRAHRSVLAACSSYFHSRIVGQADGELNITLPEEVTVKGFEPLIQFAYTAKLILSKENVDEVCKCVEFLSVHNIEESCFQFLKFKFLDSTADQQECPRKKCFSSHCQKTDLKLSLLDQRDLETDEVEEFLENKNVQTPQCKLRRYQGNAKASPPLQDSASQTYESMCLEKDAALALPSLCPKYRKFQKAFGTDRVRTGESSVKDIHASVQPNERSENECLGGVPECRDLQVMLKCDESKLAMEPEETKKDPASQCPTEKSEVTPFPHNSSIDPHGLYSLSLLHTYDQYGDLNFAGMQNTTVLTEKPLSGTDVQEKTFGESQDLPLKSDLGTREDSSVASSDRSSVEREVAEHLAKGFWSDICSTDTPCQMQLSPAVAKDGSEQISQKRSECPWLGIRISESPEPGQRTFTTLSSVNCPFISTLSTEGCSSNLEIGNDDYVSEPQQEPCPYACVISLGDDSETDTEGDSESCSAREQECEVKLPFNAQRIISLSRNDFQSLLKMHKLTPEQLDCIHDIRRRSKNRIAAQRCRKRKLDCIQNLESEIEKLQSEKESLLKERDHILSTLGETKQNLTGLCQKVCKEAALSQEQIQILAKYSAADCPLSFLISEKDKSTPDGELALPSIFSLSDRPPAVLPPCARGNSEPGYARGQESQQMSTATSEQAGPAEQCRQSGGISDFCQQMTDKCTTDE
# Description: (§1) Whole cell lysates were prepared using RIPA buffer (Sigma) with protease inhibitor cocktails (1:100 ThermoFisher) and phosphatase inhibitors (SimpleStop1, Gold Biotechnology) at 4° C. and quantified using Bradford assays for western blotting using antibodies against BACH1 (sc-271211; Santa Cruz), and alpha-TUBULIN (sc-28199; Santa Cruz). Blots were imaged and processed using a Licor Odyssey Fc, dual-mode imaging system (Licor).
# [3] = biological target: T1, BACH1; assay: Immunoblotting of PDX tumor lysates: BACH1; assay type: in vivo, mouse; set-up: BACH1 protein blots using tumor lysates from representative mice of different TNBC models; from tissue; host or cells: TNBC patient-derived xenograft tumour in mammary fat pad of SCID-Beige mice; details: following hemin treatment
# Description: as §1
# For a patient-derived xenografts (PDX) model, frozen PDX tumors in 0.5 ml of sterile HBSS were prepared in a volume of 10-20 mm^3. In brief, tumor fragments were implanted into the mammary fat pads of 5 weeks old SCID-Beige mice following standard procedures. […] Tumor volume was measured by caliper weekly. Tumor weight was measured at the end of drug treatment. Tumor size was shown as mean+/_s.e.m. with significance (p-value) by paired Student's t-test. All the animals were also monitored regularly for body weights.
compound,measurement,setting,value
"C=CC1=C(C)c2cc3[n-]c(cc4[n-]c(cc5nc(cc1n2)C(C)=C5C=C)c(C)c4CCC(=O)O)c(CCC(=O)O)c3C.[Cl-].[Fe+3] [hemin, Chloro[3,7,12,17-tetramethyl-8,13-divinylporphyrin-2,18-dipropanoato(2-)]iron(III)]",cytotoxicity / growth inhibition of cultured TNBC cells,[1]; 20 μM hemin,neither cytotoxic nor growth inhibitory
same,metformin sensitivity of MB468 cells expressing wild type BACH1 when treated with hemin,[1]; MB468 transfected with pCDH-BACH1,metformin sensitivity was restored
same,cytotoxicity / growth inhibition of TNBC cells,[1]; hemin 10-80 μM up to 124 hours,neither cytotoxic nor growth inhibitory
same,BACH1 levels,"[2]; 20 μM hemin, cultured TNBC cells",effective at reducing BACH1 levels
same,BACH1 levels,"[2]; hemin 10-80 μM, TNBC cells",effective at reducing BACH1 levels
same,BACH1 protein expression in PDX tumors,[3],depleted
